Source: the supplement of paper PMC10307832

What was measured:
Experiment in all cases: relative viability (nuclei count vs DMSO), 5 days (fraction); higher = more cells survive
Venetoclax + Lapatinib = compound: CC1(C)CCC(CN2CCN(c3ccc(C(=O)NS(=O)(=O)c4ccc(NCC5CCOCC5)c([N+](=O)[O-])c4)c(Oc4cnc5[nH]ccc5c4)c3)CC2)=C(c2ccc(Cl)cc2)C1 [Venetoclax] + CS(=O)(=O)CCNCc1ccc(-c2ccc3ncnc(Nc4ccc(OCc5cccc(F)c5)c(Cl)c4)c3c2)o1 [Lapatinib] (partner 2 µM)
Summary of the method: (§1)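 Medians of duplicate plates are given as relative viability. That measure is the nuclei count in treated wells divided by the count in vehicle wells. Counts were taken on 4× images of lung cancer cell lines in 1536-well plates, 5 days after pin-tool dosing the day after seeding with one drug alone or a fixed anchor-drug dose plus five library-drug doses (not always all listed) in √10 steps.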

Selumetinib + Tozasertib = compound: Cn1cnc2c(F)c(Nc3ccc(Br)cc3Cl)c(C(=O)NOCCO)cc21 [Selumetinib] + Cc1cc(Nc2cc(N3CCN(C)CC3)nc(Sc3ccc(NC(=O)C4CC4)cc3)n2)n[nH]1 [Tozasertib] (partner 0.1 µM)
Summary of the method: as §1

Selumetinib + Alpelisib = compound: Cn1cnc2c(F)c(Nc3ccc(Br)cc3Cl)c(C(=O)NOCCO)cc21 [Selumetinib] + Cc1nc(NC(=O)N2CCC[C@H]2C(N)=O)sc1-c1ccnc(C(C)(C)C(F)(F)F)c1 [Alpelisib] (partner 2 µM)
Summary of the method: as §1

Selumetinib + Olaparib = compound: Cn1cnc2c(F)c(Nc3ccc(Br)cc3Cl)c(C(=O)NOCCO)cc21 [Selumetinib] + O=C(c1cc(Cc2n[nH]c(=O)c3ccccc23)ccc1F)N1CCN(C(=O)C2CC2)CC1 [Olaparib] (partner 8 µM)
Summary of the method: as §1

Cell Line | relative viability (Venetoclax + Lapatinib; first compound 0.01 µM) | relative viability (Venetoclax + Lapatinib; first compound 0.03162 µM) | relative viability (Venetoclax + Lapatinib; first compound 0.1 µM) | relative viability (Venetoclax + Lapatinib; first compound 0.3162 µM) | relative viability (Venetoclax + Lapatinib; first compound 1 µM) | relative viability (Selumetinib + Tozasertib; first compound 0.02 µM) | relative viability (Selumetinib + Tozasertib; first compound 0.06325 µM) | relative viability (Selumetinib + Tozasertib; first compound 0.2 µM) | relative viability (Selumetinib + Tozasertib; first compound 0.6325 µM) | relative viability (Selumetinib + Alpelisib; first compound 0.02 µM) | relative viability (Selumetinib + Alpelisib; first compound 0.06325 µM) | relative viability (Selumetinib + Alpelisib; first compound 0.2 µM) | relative viability (Selumetinib + Alpelisib; first compound 0.6325 µM) | relative viability (Selumetinib + Olaparib; first compound 0.02 µM) | relative viability (Selumetinib + Olaparib; first compound 0.06325 µM) | relative viability (Selumetinib + Olaparib; first compound 0.2 µM) | relative viability (Selumetinib + Olaparib; first compound 0.6325 µM)
NCI-H1975 | 1.02 | 0.875 | 0.903 | 0.948 | 0.863 | 0.753 | 0.703 | 0.684 | 0.591 | 0.643 | 0.511 | 0.413 | 0.37 | 0.799 | 0.88 | 0.658 | 0.582
NCI-H1993 | 0.783 | 0.861 | 0.796 | 0.733 | 0.813 | 0.492 | 0.557 | 0.575 | 0.601 | 0.681 | 0.584 | 0.769 | 0.702 | 1.16 | 0.808 | 0.876 | 0.795
NCI-H2009 | 1.06 | 0.902 | 1.05 | 1.01 | 0.851 | 0.606 | 0.502 | 0.499 | 0.384 | 0.99 | 0.713 | 0.519 | 0.486 | 0.775 | 0.6 | 0.608 | 0.316
NCI-H2023 | 0.935 | 0.888 | 0.748 | 0.898 | 0.627 | 0.362 | 0.317 | 0.267 | 0.253 | 0.592 | 0.429 | 0.471 | 0.547 | 0.555 | 0.467 | 0.454 | 0.487
NCI-H2085 | 0.658 | 0.849 | 0.749 | 0.821 | 0.747 | 0.737 | 0.592 | 0.552 | 0.593 | 0.884 | 0.742 | 0.796 | 0.873 | 0.704 | 0.771 | 0.689 | 0.671
NCI-H2087 | 0.958 | 1.16 | 1.07 | 1.09 | 1.05 | 0.194 | 0.211 | 0.166 | 0.147 | 0.777 | 0.65 | 0.515 | 0.306 | 0.527 | 0.38 | 0.322 | 0.243
NCI-H2126 | 0.738 | 0.731 | 0.734 | 0.769 | 0.73 | 0.784 | 0.741 | 0.728 | 0.638 | 0.679 | 0.675 | 0.58 | 0.532 | 0.893 | 0.833 | 0.813 | 0.742
NCI-H2170 | 0.255 | 0.29 | 0.255 | 0.254 | 0.268 | 0.746 | 0.848 | 0.661 | 0.657 | 0.763 | 0.828 | 0.736 | 0.658 | 0.62 | 0.594 | 0.649 | 0.568
NCI-H2228 | 1.15 | 1.29 | 1.21 | 1.09 | 0.954 | 0.247 | 0.255 | 0.211 | 0.204 | 0.72 | 0.608 | 0.416 | 0.411 | 0.754 | 0.69 | 0.685 | 0.608
NCI-H2347 | 0.948 | 0.949 | 0.983 | 0.872 | 0.922 | 0.505 | 0.489 | 0.35 | 0.228 | 0.832 | 0.613 | 0.445 | 0.387 | 0.386 | 0.467 | 0.403 | 0.355
NCI-H2405 | 1.07 | 1.08 | – | 1.01 | 1 | 0.734 | 0.673 | 0.692 | 0.478 | 0.737 | 0.472 | 0.427 | 0.277 | 0.85 | 0.762 | 0.844 | 0.581
NCI-H3122 | 1.15 | 1.04 | 1.05 | 0.986 | 1.05 | 0.397 | 0.351 | 0.305 | 0.268 | 0.551 | 0.492 | 0.353 | 0.366 | 0.609 | 0.571 | 0.563 | 0.565
PC-3 [JPC-3] | 0.474 | 0.474 | 0.434 | 0.465 | 0.475 | 0.991 | 0.813 | 0.769 | 0.655 | 1.02 | 0.935 | 0.9 | 0.752 | 1.03 | 1.07 | 0.992 | 0.854
PC-14 | 0.367 | 0.328 | 0.291 | 0.361 | 0.323 | 0.529 | 0.486 | 0.532 | 0.434 | 0.92 | 0.835 | 0.925 | 0.848 | 0.294 | 0.226 | 0.252 | 0.241
RERF-LC-KJ | 0.813 | 0.844 | 0.838 | 0.832 | 0.832 | 0.541 | 0.489 | 0.465 | 0.44 | 0.858 | 0.772 | 0.693 | 0.636 | 0.878 | 0.896 | 0.889 | 0.892
SK-LU-1 | 0.907 | 1.1 | 0.859 | 0.955 | 0.893 | 0.301 | 0.306 | 0.29 | 0.252 | 1.01 | 0.988 | 0.838 | 0.542 | 0.467 | 0.459 | 0.401 | 0.335
SK-MES-1 | 0.462 | 0.53 | 0.461 | 0.425 | 0.463 | 1.08 | 0.894 | 0.949 | 0.676 | 0.851 | 0.587 | 0.56 | 0.396 | 0.728 | 0.779 | 0.695 | 0.599
SW 1573 | 1.15 | 0.979 | 0.935 | 1.08 | 0.966 | 0.15 | 0.145 | 0.174 | 0.153 | 0.868 | 0.707 | 0.618 | 0.552 | 0.479 | 0.403 | 0.368 | 0.437
